# Measurements: US11458134B2, “1-[2-(2,4-dimeihylphenylsulfanyl)-phenyl]piperazine as a compound with combined serotonin reuptake, 5-HT3 and 5-HT1A activity for the treatment of cognitive impairment” (H. Lundbeck A/S, priority 2006, dated 2022)
# Read-outs that look alike come from different tables or passages of the source.
# How the values were obtained:
# [1] = tested on: acetylcholine; assay: Microdialysis: extracellular acetylcholine in the brain of freely moving rats; type: in vivo, Sprague-Dawley rats; conditions: rat, subcutaneously 2.5-10 mg/kg
# Procedure: The animals were administered 1-[2-(2,4-dimethylphenylsulfanyl)phenyl]-piparazine, HBr salt.
# Male Sprague-Dawley rats, initially weighing 275-300 g, were used. The animals were housed under a 12-hr light/dark cycle under controlled conditions for regular in-door temperature (21±2° C.) and humidity (55±5%) with food and tap water available ad libitum.
# Rats were anaesthetised with hypnorm/dormicum (2 ml/kg) and intracerebral guide cannulas (CMA/12) were stereotaxically implanted into the brain, aiming at positioning the dialysis probe tip in the ventral hippocampus (co-ordinates: 5.6 mm posterior to bregma, lateral −5.0 mm, 7.0 mm ventral to dura) or in the prefrontal cortex (co-ordinates: 3.2 mm anterior to bregma; lateral, 0.8 mm; 4.0 mm ventral to dura). […] The body temperature of the animals was monitored by rectal probe and maintained at 37° C. […]
# The compound dissolved in 10% HPbetaCD and injected subcutaneously (2.5-10 mg/kg). Doses are expressed as mg salt/kg body weight. […]
# Concentration of acetylcholine (ACh) in the dialysates was analysed by means of HPLC with electrochemical detection using a mobile phase consisting of 100 mM disodium hydrogenphosphate, 2.0 mM octane sulfonic acid, 0.5 mM tetramethyl-ammonium chloride and 0.005% MB (ESA), pH 8.0. […] The latter was detected electrochemical by using a platinum electrode (Analytical cell: ESA, model 5040). […]
# [2] = tested on: Sprague-Dawley rats; assay: Contextual fear conditioning in rats; type: in vivo; conditions: for time spent freezing during the retention test: 24 h after acquisition
# From the text: The compound administered in the present experiment was 1-[2-(2,4-dimethylphenylsulfanyl)phenyl]piperazine HBr salt.
# We have studied the effect of the compound on acquisition, consolidation and recall of contextual fear conditioning in rats. In the fear conditioning paradigm animals learn to associate a neutral environment (context, the training chamber, CS) with an aversive experience (an electrical foot-shock, US). During re-exposure to the training chamber, animals express a freezing behaviour, which is taken as a direct measure of the fear-related memory [Pavlov J. Biol. Sci., 15, 177-182, 1980]. […] Neurosci., 106, 274-285, 1992].
# Adult male Sprague-Dawley rats (weighing 250-300 g at time of training) from Charles River Laboratories, housed two per cage under a 12 h light/dark cycle, were used. Food and water were available ad libitum. Rats were used 1 week after arrival. The compound was dissolved in 10% HPbetaCD and injected subcutaneously. The drug was administered in a volume of 2.5 ml/kg.
# Training and testing were conducted in a soundproof chamber (30×20×40 cm) housed in an isolated room and connected to a ventilation system. Illumination was provided by a white light (60 Watt). The floor of the chamber consisted of a metal grid attached to an electric shock generator. Prior to training and testing, the chamber was cleaned with a 70% ethanol solution. A video camera allowed for behavioral observations and recording of the training session for off-line analysis.
# During the acquisition animals were allowed to freely explore the novel environment for a 1 min habituation period, which co-terminated with one inescapable foot-shock (unconditioned stimulus, US) through the electrifiable grid floor. […] Animals remained in the conditioning chamber for another 60 s after the US. Freezing behaviour was scored during the first 58 s (pre-shock acquisition; experimenter blinded to groups) to determine baseline-freezing responses to the context. At the end of the acquisition animals were gently removed and placed into their home cages. After 24 h the same animals were reintroduced into the training context (fear conditioning chamber) and a 2 min retention test was performed. During this period no foot shocks were applied. Freezing behaviour was scored during the whole test period with the experimenter blinded to groups and presented as percent of total test period.
# [3] = physchem; conditions: water
# [4] = Solubility in water
# [5] = molecular target: Rat serotonin transporter (Rattus norvegicus, UniProt P31652); assay: Rat serotonin transporter, blockade of 5-HT uptake; type: biochemical
# [6] = molecular target: T1, Human 5-HT3A receptor (Homo sapiens, UniProt P46098); assay: Human 5-HT3A receptor functional assay (cloned into oocytes); type: cell-based; conditions: at higher concentration, read-out: ED50 (agonistic activity)
# T1 sequence (P46098 24-478): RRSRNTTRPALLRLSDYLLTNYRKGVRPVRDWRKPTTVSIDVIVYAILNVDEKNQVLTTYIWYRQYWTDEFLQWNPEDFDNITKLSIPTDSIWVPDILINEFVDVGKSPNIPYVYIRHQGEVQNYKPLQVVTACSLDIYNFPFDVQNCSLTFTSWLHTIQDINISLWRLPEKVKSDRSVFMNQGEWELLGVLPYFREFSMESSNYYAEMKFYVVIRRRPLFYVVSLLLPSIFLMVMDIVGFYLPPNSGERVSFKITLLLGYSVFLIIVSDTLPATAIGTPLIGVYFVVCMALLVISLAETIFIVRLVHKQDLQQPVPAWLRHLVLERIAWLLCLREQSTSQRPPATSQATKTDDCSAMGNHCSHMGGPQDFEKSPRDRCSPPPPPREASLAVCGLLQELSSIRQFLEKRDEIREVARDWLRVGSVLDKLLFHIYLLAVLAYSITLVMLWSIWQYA
# From the text: As shown in example 1, the compounds of the present invention are potent inhibitors of the human serotonin transporter, i.e. they inhibit serotonin reuptake. Moreover, the compounds are potent antagonists at the mouse, rat, guinea pig and canine 5-HT3 receptor. […] Thus, at low concentrations compounds of the present invention display a marked antagonism at the human 5-HT3 receptor as observed on the 5-HT3 receptor from other species.
# [7] = Hygroscopicity (water absorption versus relative humidity); type: physicochemical
# Chain of Rat serotonin transporter (P31652 whole entry): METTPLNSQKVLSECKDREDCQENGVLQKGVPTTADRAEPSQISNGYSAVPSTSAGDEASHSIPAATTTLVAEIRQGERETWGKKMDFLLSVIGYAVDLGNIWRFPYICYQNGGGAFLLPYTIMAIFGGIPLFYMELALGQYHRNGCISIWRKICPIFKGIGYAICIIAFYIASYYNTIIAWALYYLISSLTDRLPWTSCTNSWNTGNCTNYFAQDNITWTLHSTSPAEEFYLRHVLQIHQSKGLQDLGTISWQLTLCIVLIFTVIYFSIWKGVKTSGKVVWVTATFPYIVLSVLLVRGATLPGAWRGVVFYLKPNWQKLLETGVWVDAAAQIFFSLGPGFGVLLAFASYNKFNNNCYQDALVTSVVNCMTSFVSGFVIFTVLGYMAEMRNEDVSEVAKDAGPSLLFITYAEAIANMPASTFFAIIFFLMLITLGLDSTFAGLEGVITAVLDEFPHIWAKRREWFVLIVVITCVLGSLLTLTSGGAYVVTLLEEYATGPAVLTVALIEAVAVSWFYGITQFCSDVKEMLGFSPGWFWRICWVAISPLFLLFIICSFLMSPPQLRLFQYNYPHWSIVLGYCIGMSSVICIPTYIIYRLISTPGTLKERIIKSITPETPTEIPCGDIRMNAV
structure (smiles),measurement,setting,value
"Br.Cc1ccc(Sc2ccccc2N2CCNCC2)c(C)c1 [1-[2-(2,4-dimethylphenylsulfanyl)phenyl]piperazine HBr salt]",extra-cellular levels of ACh in prefrontal cortex,[1]; FIG. 19a,significantly increased
same,extra-cellular levels of ACh in ventral hippocampus,[1]; FIG. 19b,significantly increased
same,time spent freezing during the retention test,[2]; 5 mg/kg s.c. 1 h prior to acquisition,39.24±13.76%
same,freezing behaviour during the memory test,"[2]; 5 mg/kg s.c. 1 h prior to the retention test, p<0.05",12.86±3.57%
same,time spent freezing during the retention test,"[2]; 5 mg/kg s.c. after the acquisition session, p<0.05",45.58±4.50%
same,time spent freezing during the retention test,"[2]; 10 mg/kg s.c. 1 h prior to acquisition, p<0.01",52.15±5.68%
same,contextual memory,[2]; rats,enhances contextual memory
same,baseline freezing behaviour before the foot shock,"[2]; rats, 1, 5 and 10 mg/kg s.c. 1 h prior to acquisition",does not affect
"Cc1ccc(Sc2ccccc2N2CCNCC2)c(C)c1.O=C(O)C(O)C(O)C(=O)O [L-(+)-tartrate, 1-[2-(2,4-Dimethylphenylsulfanyl)-phenyl]piperazine (+)-tartaric acid]",solubility,[3],~400 µg/mL
"Br.Cc1ccc(Sc2ccccc2N2CCNCC2)c(C)c1 [beta form of the hydrobromide, 1-[2-(2,4-Dimethylphenylsulfanyl)-phenyl]piperazine hydrobromide]",solubility in water,[4]; hydrobromide,1200 µg/mL
"Cc1ccc(Sc2ccccc2N2CCNCC2)c(C)c1 [compound I, 1-[2-(2,4-dimethylphenylsulfanyl)-phenyl]piperazine]",IC50,[5],5.3 nM
same,EC50,[6],2100 nM
"Cc1ccc(Sc2ccccc2N2CCNCC2)c(C)c1 [crystalline base, 1-[2-(2,4-Dimethylphenylsulfanyl)-phenyl]piperazine]",hygroscopicity,[7],not hygroscopic
same,solubility in water,[4],100 µg/mL
"Br.CCOC(C)=O.Cc1ccc(Sc2ccccc2N2CCNCC2)c(C)c1 [ethyl acetate solvate, 1-[2-(2,4-Dimethylphenylsulfanyl)-phenyl]piperazine HBr EtOAc solvate]",hygroscopicity,[7],hygroscopic
"Cc1ccc(Sc2ccccc2N2CCNCC2)c(C)c1.O=C(O)/C=C/C(=O)O [fumarate, 1-[2-(2,4-Dimethyl-phenylsulfanyl)-phenyl]-piperazine fumarate]",solubility,[3],400 µg/mL
"Br.Cc1ccc(Sc2ccccc2N2CCNCC2)c(C)c1 [gamma form of the hydrobromide, 1-[2-(2,4-Dimethylphenylsulfanyl)-phenyl]piperazine hydrobromide]",water absorbed at 30% RH,[7]; 30% RH at room temperature,about 2%
Br.Cc1ccc(Sc2ccccc2N2CCNCC2)c(C)c1 [hemi hydrate of the hydrobromide],water content,[7]; room temperature and 95% RH,about 3.7%
"Cc1ccc(Sc2ccccc2N2CCNCC2)c(C)c1.Cl [hydrochloride monohydrate, 1-[2-(2,4-Dimethylphenylsulfanyl)-phenyl]piperazine HCl]",hygroscopicity,[7],does not absorb further amount of water
same,solubility,[3],~2000 µg/mL
"Cc1ccc(Sc2ccccc2N2CCNCC2)c(C)c1.O=C(O)/C=C\C(=O)O [maleate, 1-[2-(2,4-Dimethylphenylsulfanyl)-phenyl]piperazine Maleate]",solubility,[3],~1000 µg/mL
"CS(=O)(=O)O.Cc1ccc(Sc2ccccc2N2CCNCC2)c(C)c1 [mesylate, 1-[2-(2,4-Dimethylphenylsulfanyl)-phenyl]piperazine mesylate]",hygroscopicity,[7],hygroscopic
same,solubility,[3],> 45000 µg/mL
"Cc1ccc(Sc2ccccc2N2CCNCC2)c(C)c1.O=[N+]([O-])O [nitrate, 1-[2-(2,4-Dimethylphenylsulfanyl)-phenyl]piperazine nitrate]",solubility,[3],~800 µg/mL
"Cc1ccc(Sc2ccccc2N2CCNCC2)c(C)c1.O=P(O)(O)O [phosphate, 1-[2-(2,4-Dimethylphenylsulfanyl)-phenyl]piperazine phosphate]",solubility,[3],~1000 µg/mL
"Cc1ccc(Sc2ccccc2N2CCNCC2)c(C)c1.O=S(=O)(O)O [sulphate, 1-[2-(2,4-Dimethylphenylsulfanyl)-phenyl]piperazine sulphate]",solubility,[3],~100 µg/mL
